pIC50, pKd: −log10 of the molar value.
Columns and labels:
Estrogen receptor beta [1] = biological target: T1, Estrogen receptor beta (Homo sapiens, UniProt Q92731)
Estrogen receptor beta [2] = biological target: T1, Estrogen receptor beta; remark: listed apart in the source
Estrogen receptor [3] = biological target: T2, Estrogen receptor (Homo sapiens, UniProt P03372)
T2 sequence (P03372 whole entry): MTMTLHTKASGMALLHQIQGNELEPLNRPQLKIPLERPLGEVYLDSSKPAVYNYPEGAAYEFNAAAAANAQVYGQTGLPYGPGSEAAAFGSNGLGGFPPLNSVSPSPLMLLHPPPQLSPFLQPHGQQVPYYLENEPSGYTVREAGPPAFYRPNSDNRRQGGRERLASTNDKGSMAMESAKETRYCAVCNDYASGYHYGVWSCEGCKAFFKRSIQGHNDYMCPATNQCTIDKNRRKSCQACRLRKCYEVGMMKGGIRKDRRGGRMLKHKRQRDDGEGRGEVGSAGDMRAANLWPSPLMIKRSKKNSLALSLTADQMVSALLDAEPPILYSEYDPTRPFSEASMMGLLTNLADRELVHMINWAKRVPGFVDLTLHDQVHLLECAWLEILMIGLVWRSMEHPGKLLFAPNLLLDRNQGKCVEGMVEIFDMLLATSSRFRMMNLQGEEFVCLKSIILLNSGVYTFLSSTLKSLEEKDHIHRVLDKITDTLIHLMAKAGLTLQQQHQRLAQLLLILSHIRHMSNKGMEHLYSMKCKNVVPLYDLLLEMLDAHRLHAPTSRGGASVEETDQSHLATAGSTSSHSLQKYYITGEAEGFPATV

Estrogen receptor [4] = biological target: T2, Estrogen receptor; remark: listed apart in the source

T1 sequence (Q92731 whole entry): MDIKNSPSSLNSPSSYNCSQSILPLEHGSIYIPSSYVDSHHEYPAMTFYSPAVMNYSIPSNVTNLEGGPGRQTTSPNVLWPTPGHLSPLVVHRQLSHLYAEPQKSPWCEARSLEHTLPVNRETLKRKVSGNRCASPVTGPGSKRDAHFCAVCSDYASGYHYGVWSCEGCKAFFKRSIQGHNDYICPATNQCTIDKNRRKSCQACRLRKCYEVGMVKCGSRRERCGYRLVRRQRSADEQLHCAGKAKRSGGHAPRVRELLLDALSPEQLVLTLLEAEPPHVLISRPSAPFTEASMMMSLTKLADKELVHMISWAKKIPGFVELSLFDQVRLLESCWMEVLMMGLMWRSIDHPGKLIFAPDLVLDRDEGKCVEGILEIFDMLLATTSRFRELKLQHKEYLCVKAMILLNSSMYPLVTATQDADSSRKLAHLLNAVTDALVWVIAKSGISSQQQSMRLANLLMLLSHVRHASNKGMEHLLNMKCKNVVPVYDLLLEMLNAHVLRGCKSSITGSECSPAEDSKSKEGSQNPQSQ

Compound	pIC50 (Estrogen receptor beta [1])	pIC50 (Estrogen receptor beta [2])	pKd (Estrogen receptor [3])	pIC50 (Estrogen receptor [4])
C[C@@H](CCO)C1=CC[C@H]2[C@@H]3CCc4cc(O)ccc4[C@H]3CC[C@]12C	6.56	6.97	6.49	–
CCCOC(=O)[C@H]1CC[C@H]2[C@@H]3CCc4cc(O)ccc4[C@H]3CC[C@]12C	–	–	6.49	7.04
CC[C@H](C)C1=CC[C@H]2[C@@H]3CCc4cc(O)ccc4[C@H]3CC[C@]12C	7.15	7.06	6.80	–
CC1C[C@H](C)C2(CC[C@H]3[C@@H]4CCc5cc(O)ccc5[C@H]4CC[C@@]32C)O1 (stereo partly drawn)	–	6.95	6.80	6.32
C[C@]12CC[C@@H]3c4ccc(O)cc4CC[C@H]3[C@@H]1CC=C2CO	–	8.17	–	–
OC[C@H]1CCC[C@@H](c2ccc(O)cc2)CC1 (racemic)	–	–	< 6.00	–

From ChEMBL document CHEMBL3098089, “Probing the human estrogen receptor-α binding requirements for phenolic mono- and di-hydroxyl compounds: a combined synthesis, binding and docking study” (Bioorg Med Chem, 2014)
